# Experimental data: patent US9617276B2, “Compounds and methods for treating AIDS and HIV infections” (priority 2009, dated 2017)
# Key:
# [1] = test system: HIV-1NL4-3; test: in vitro selection of PI-resistant HIV-1 variants in MT-4 cells; type: cell-based; conditions: HIV-1NL4-3 in MT-4 cells, increasing drug concentrations
# Excerpt: The culture supernatants were harvested on day 7 and used to infect fresh MT-4 cells for the next round of culture in the presence of increasing concentrations of each drug.
# [2] = test system: HIV-1LAI; test: drug susceptibility, MT-2 cells, MTT assay, HIV-1LAI; type: cell-based
# Description: (§1) All assays were performed in duplicate or triplicate. […] All assays were performed in duplicate or triplicate.
# Each selectivity index denotes a ratio of CC50 to EC50 against HIV-1LAI N.D., not done.
# [3] = test system: HIV-1286-1μM; test: microbe, parasite or virus in culture; type: cell-based, HIV-1
# Description: (§2) Briefly, MT-2 cells (2×10^4/ml) were exposed to 100 50% tissue culture infectious doses (TCID50S) of HIV-1LAI, in the presence or absence of various concentrations of drugs in 96-well microculture plates and were incubated at 37° C. for 7 days. After 100 μl of the medium was removed from each well, 3-(4,5-dimetylthiazol-2-yl)-2,5-diphenyltetrazolium bromide (MTT) solution (10 μl, 7.5 mg/ml in phosphate-buffered saline) was added to each well in the plate, followed by incubation at 37° C. for 3 h. […] All assays were performed in duplicate or triplicate. […] To determine the drug susceptibility of certain laboratory HIV-1 strains, MT-4 cells were used as target cells. In brief, MT-4 cells (10^5/ml) were exposed to 100 TCID50S of drug-resistant HIV-1 strains in the presence or absence of various concentrations of drugs and on day 7 of culture, the supernatant was harvested and the amounts of p24 Gag protein were determined. […] All assays were performed in duplicate or triplicate.
# (§3) Numbers in parentheses represent n-fold changes in EC50s for each isolate compared to the EC50s for wild-type HIV-1NL4-3.
# [4] = test system: HIV-1396-1μM; test: microbe, parasite or virus in culture; type: cell-based, HIV-1
# Description: as §2, §3
# [5] = test system: HIV-1216-P50; test: microbe, parasite or virus in culture; type: cell-based, HIV-1
# Description: as §2, §3
# [6] = test system: HIV-1246-1μM; test: microbe, parasite or virus in culture; type: cell-based, HIV-1
# Description: as §2, §3
# [7] = test system: HIV-1; test: antiviral assay (IC50); type: cell-based; conditions: Human immunodeficiency virus 1, Table 2; read-out: IC50
# Description: (§4) The inhibitory potencies of acyclic and cyclic inhibitors were measured by the assay protocol of Toth and Marshall (Toth, M. V.; Marshall, G. R. A simple, continuous fluorometric assay for HIV protease. Int. J. Pep. Protien Res. 1990, 36, 544-55).
# [8] = target: T1, HIV-1 protease (Human immunodeficiency virus type 1 group M subtype B, UniProt P04585); test: HIV protease enzyme inhibition, fluorometric assay of Toth and Marshall; type: biochemical; conditions: Ki, Table 2
# T1 construct: A simple, continuous fluorometric assay for HIV protease
# Description: as §4
# [9] = test system: HIV-1NL4-3; test: p24 Gag inhibition in MT-4 cells, HIV-1NL4-3; type: cell-based; conditions: Human immunodeficiency virus 1, MT4, read-out: EC50 (μM), HIV-1NL4-3, Table 9, mean ± 1 SD
# Description: as §1
# [10] = cytotoxicity CC50; type: cell-based, Human; conditions: human
# [11] = compared to wild-type HIV-1NL4-3
smiles,measurement,setting,value
COc1ccc2c(c1)OCC=CCCCCN(CC(O)C(Cc1ccccc1)NC(=O)OC1COC3OCCC13)S2(=O)=O (stereo not drawn) [Compound 14d],passage by which HIV-1 variants replicating in the presence of 1 μM drug emerged,[1],33 passages
same,EC50,"[2]; Human immunodeficiency virus 1, MT2, read-out: EC50 (μM) for HIV-1LAI",0.014 ± 0.001 µM
same,Selectivity Index,[2]; ratio of CC50 to EC50 against HIV-1LAI,"3,200"
same,EC50,"[3]; Human immunodeficiency virus 1, MT4, read-out: EC50 (μM), HIV-1286-1 μM",> 1 µM
same,"n-fold change in EC50, HIV-1286-1 μM",[3]; [11],> 59
same,EC50,"[4]; Human immunodeficiency virus 1, MT4, read-out: EC50 (μM), HIV-1396-1 μM",0.52 ± 0.07 µM
same,"n-fold change in EC50, HIV-1396-1 μM",[4]; [11],(31)
same,EC50,"[5]; Human immunodeficiency virus 1, MT4, read-out: EC50 (μM), HIV-1216-p50",0.24 ± 0.06 µM
same,"n-fold change in EC50, HIV-1216-p50",[5]; [11],(14)
same,EC50,"[6]; Human immunodeficiency virus 1, MT4, read-out: EC50 (μM), HIV-1246-1 μM",0.37 ± 0.013 µM
same,"n-fold change in EC50, HIV-1246-1 μM",[6]; [11],(22)
same,IC50,[7],< 100 nM
same,Ki,[8],< 1 nM
same,EC50,[9],0.017 ± 0.005 µM
same,CC50,[10],44900 ± 4100 nM
